Measurements published in article PMC11537071, “Identification and characterization of a carbohydrate recognition domain-like region in Entamoeba histolytica Gal/GalNAc lectin intermediate subunit” (Microbiology Spectrum, 2024).

What was measured:
Igl-C = target: T1, Igl-C (Entamoeba histolytica, UniProt Q964D2); assay: competition with FITC-PNA on Caco-2 cells; type: cell-based; settings: 60 mM sugar, 300 nM protein, on ice
T1 construct: gene igl1; C-terminal segment, 486 aa (contains Igl-C0 to C3, ends at about residue 1,088), His-tagged, pET-19b, E. coli BL21 Star(DE3)pLysS

Igl-C3 = target: T2, Igl-C3 (Entamoeba histolytica, UniProt Q964D2); assay: competition with FITC-PNA on Caco-2 cells; hemagglutination inhibition; type: cell-based; settings: 60 mM sugar, 300 nM protein, on ice; also hemagglutination of human group O erythrocytes
T2 construct: gene igl1; CRD-like region, residues 989-1,088 (100 aa), His-tagged, pET-19b, E. coli BL21 Star(DE3)pLysS
T2 sequence (Q964D2 entry or part of it): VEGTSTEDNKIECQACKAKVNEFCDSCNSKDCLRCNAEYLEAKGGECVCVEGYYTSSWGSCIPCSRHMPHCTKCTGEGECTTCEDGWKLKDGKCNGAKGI

T1 sequence (Q964D2 entry or part of it): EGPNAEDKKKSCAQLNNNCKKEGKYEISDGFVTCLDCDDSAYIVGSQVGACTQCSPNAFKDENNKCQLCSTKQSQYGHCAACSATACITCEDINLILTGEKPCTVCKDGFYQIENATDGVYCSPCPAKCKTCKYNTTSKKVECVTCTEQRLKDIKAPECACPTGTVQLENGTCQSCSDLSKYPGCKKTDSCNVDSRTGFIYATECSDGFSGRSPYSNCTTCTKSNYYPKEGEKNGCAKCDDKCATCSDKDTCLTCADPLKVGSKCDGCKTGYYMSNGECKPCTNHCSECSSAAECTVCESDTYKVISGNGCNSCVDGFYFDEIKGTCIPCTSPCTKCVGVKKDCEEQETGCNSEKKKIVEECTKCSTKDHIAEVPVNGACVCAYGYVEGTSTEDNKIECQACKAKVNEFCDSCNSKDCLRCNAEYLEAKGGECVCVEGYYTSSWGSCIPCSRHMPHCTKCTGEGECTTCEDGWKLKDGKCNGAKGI

| Structure (SMILES) | competition with FITC-PNA on Caco-2 cells (Igl-C) | competition with FITC-PNA on Caco-2 cells; hemagglutination inhibition (Igl-C3) |
| --- | --- | --- |
| CC(=O)N[C@H]1C(O)O[C@H](CO)[C@H](O)[C@@H]1O (stereo partly drawn) [GalNAc, N-acetyl-D-galactosamine] | this competitive process could in turn be weakened by the addition of Gal and GalNAc | only Igl-C3 exhibited obvious hemagglutinating activity, which could be inhibited by Gal/GalNAc |
| OC[C@H]1OC(O)[C@H](O)[C@@H](O)[C@H]1O (stereo partly shown) [Gal, galactose] | this competitive process could in turn be weakened by the addition of Gal and GalNAc | only Igl-C3 exhibited obvious hemagglutinating activity, which could be inhibited by Gal/GalNAc |
